SMILES strings stand for the structures. Counter-ions that a name gives are not always drawn. Some results are limits rather than exact numbers.

One assay has as its system platelet aggregation in human platelet rich plasma (PRP). As to the kind of experiment: Platelet Aggregation Assay (platelet rich plasma, with or without esterase pretreatment). Particulars: Platelet, preincubated with 100 IU/mL porcine liver esterase 2 hours at 37° C., 100 μM ADP, read-out: Platelet Aggregation Assay IC50 (with esterase). Type of assay: cell-based. The method, then:
Venous blood was obtained from the arm of a healthy human donor who was drug-free and aspirin-free for at least two weeks prior to blood collection. Blood was collected into 10 mL citrated Vacutainer tubes. The blood was centrifuged for 15 minutes at 150×g at room temperature, and platelet-rich plasma (PRP) was removed. The remaining blood was centrifuged for 15 minutes at 1500×g at room temperature, and platelet-poor plasma (PPP) was removed. Samples were assayed on a aggregometer (PAP-4 Platelet Aggregation Profiler), using PPP as the blank (100% transmittance). 200 μL of PRP was added to each micro test tube, and transmittance was set to 0%. 20 μL of various agonists (ADP, collagen, arachidonate, epinephrine, thrombin) were added to each tube, and the aggregation profiles were plotted (% transmittance versus time). The results are expressed as % inhibition of agonist-induced platelet aggregation. For the IC50 evaluation, the test compounds were added at various concentrations prior to the activation of the platelets.
Ester prodrugs were preincubated (10^-3 M F.C.) with 100 IU/mL Porcine liver esterase (Sigma Chemical Co., St. Louis, Mo., #E-3128) for 2 hours at 37° C. Aliquots are then diluted in 0.1M Tris, pH 7.4, to the desired concentrations. Aliquots of 20 μl of the esterase pretreated prodrugs are added to 200 μl of human platelet rich plasma. Samples were placed in platelet profiler (aggregometer) for 8 minutes at 37° C., followed by the addition of 100 μM Adenosine Diphosphate, (Sigma Chemical Co., St. Louis, Mo., #A-6521), to induce platelet aggregation. Platelet aggregation was allowed to proceed for 5 minutes. Percent inhibition is calculated using percent aggregation in the presence of the test compound divided by percent aggregation of control, times 100. This value is subtracted from 100, yielding percent inhibition. Calculation of IC50 is performed on a Texas Instruments TI59 with an IC50 program.
Table A below sets forth the antiplatelet activity of representative compounds of the present invention. The indicated compounds were tested for their ability to inhibit platelet aggregation (using platelet rich plasma (PRP)). The IC50 value (the concentration of antagonist which inhibits platelet aggregation by 50% relative to a control lacking the antagonist) is shown. In Table 5 the IC50 values are expressed as: +++=IC50 of <10 μM; ++=IC50 of 10-50 μM; +=IC50 of 50-100 μM (μM=micromolar).
On to `COC(=O)C(CNC(=O)CC1CC(c2ccc(C(=N)N)cc2)=NO1)NS(=O)(=O)c1ccc(OC)cc1` (stereo not drawn) [Example 484], for which the IC50 was under 10 µM.
On the same count and under the same terms, with `COC(=O)C(CNC(=O)CC1CC(c2ccc(C(=N)N)cc2)=NO1)NS(=O)(=O)c1c(C)c(C)cc(C)c1C` (stereo not drawn) [Example 485] the figure was under 10 µM; with `COC(=O)C(CNC(=O)CC1CC(c2ccc(C(=N)N)cc2)=NO1)NS(=O)(=O)c1ccc(C#N)cc1` (stereo not drawn) [Example 486], under 10 µM.
On the same count and under the same terms, with `COC(=O)C(CNC(=O)CC1CC(c2ccc(C(=N)N)cc2)=NO1)NS(=O)(=O)c1ccc(Cl)cc1` (stereo not drawn) [Example 487] the figure was under 10 µM; with `CCc1ccc(S(=O)(=O)NC(CNC(=O)CC2CC(c3ccc(C(=N)N)cc3)=NO2)C(=O)OC)cc1` (stereo not drawn) [Example 488], under 10 µM; with `CCCc1ccc(S(=O)(=O)NC(CNC(=O)CC2CC(c3ccc(C(=N)N)cc3)=NO2)C(=O)OC)cc1` (stereo not drawn) [Example 489], under 10 µM.
Same read-out and setting: with `CCCS(=O)(=O)NC(CNC(=O)CC1CC(c2ccc(C(=N)N)cc2)=NO1)C(=O)OC` (stereo not drawn) [Example 490] the figure was under 10 µM.
Take `COC(=O)C(CNC(=O)CC1CC(c2ccc(C(=N)N)cc2)=NO1)NS(=O)(=O)CCc1ccccc1` (stereo not drawn) [Example 491]: the IC50 is under 10 µM.
Still for that read-out and setting: with `COC(=O)C(CNC(=O)CC1CC(c2ccc(C(=N)N)cc2)=NO1)NS(=O)(=O)c1ccc(C(C)C)cc1` (stereo not drawn) [Example 492] the figure was under 10 µM; with `COC(=O)C(CNC(=O)CC1CC(c2ccc(C(=N)N)cc2)=NO1)NS(=O)(=O)CCCc1ccccc1` (stereo not drawn) [Example 493], under 10 µM.
For `COC(=O)C(CNC(=O)CC1CC(c2ccc(C(=N)N)cc2)=NO1)NS(=O)(=O)c1cccnc1` (stereo not drawn) [Example 494], the IC50 is under 10 µM.
Same read-out and setting: with `COC(=O)C(CNC(=O)CC1CC(c2ccc(C(=N)N)cc2)=NO1)NS(=O)(=O)c1ccccn1` (stereo not drawn) [Example 495] the figure was under 10 µM.
Still for that read-out and setting: under `COC(=O)[C@H](CNC(=O)CC1CC(c2ccc(C(=N)N)cc2)=NO1)NS(=O)(=O)C=C(c1ccccc1)c1ccccc1` (stereo partly drawn) [Example 496, Methyl N^2-(2,2-diphenyl-1-ethenesulfonyl)-N^3-[3-(4-amidinophenyl)isoxazolin-5-(R,S)-ylacetyl]-(S)-2,3-diaminopropionate, trifluoroacetic acid salt] stands under 10 µM; under `CCCCNS(=O)(=O)NC(CNC(=O)CC1CC(c2ccc(C(=N)N)cc2)=NO1)C(=O)OC` (stereo not drawn) [Example 504], under 10 µM.
Same read-out and setting: under `COC(=O)C(CNC(=O)CC1CC(c2ccc(C(=N)N)cc2)=NO1)NS(=O)(=O)NCC(C)C` (stereo not drawn) [Example 505] stands under 10 µM; under `COC(=O)C(CNC(=O)CC1CC(c2ccc(C(=N)N)cc2)=NO1)NS(=O)(=O)NC(C)(C)C` (stereo not drawn) [Example 506], under 10 µM; under `COC(=O)C(CNC(=O)CC1CC(c2ccc(C(=N)N)cc2)=NO1)NS(=O)(=O)NC(C)C` (stereo not drawn) [Example 507], under 10 µM.
Take `COC(=O)C(CNC(=O)CC1CC(c2ccc(C(=N)N)cc2)=NO1)NS(=O)(=O)NC1CCCCC1` (stereo not drawn) [Example 508]: the IC50 is under 10 µM.
For the compound `COC(=O)C(CNC(=O)CC1CC(c2ccc(C(=N)N)cc2)=NO1)NS(=O)(=O)Nc1ccccc1` (stereo not drawn) [Example 509], the IC50 was under 10 µM.
Same read-out and setting: under `COC(=O)C(CNC(=O)CC1CC(c2ccc(C(=N)N)cc2)=NO1)NS(=O)(=O)NCc1ccccc1` (stereo not drawn) [Example 510] stands under 10 µM; under `COC(=O)[C@H](CNC(=O)CC1CC(c2ccc(C(=N)N)cc2)=NO1)NS(=O)(=O)N(C)C` (stereo partly drawn) [Example 511, Methyl N^2-(N,N-dimethylsulfamoyl)-N^3-[3-(4-amidinophenyl)isoxazolin-5-(R,S)-ylacetyl]-(S)-2,3-diaminopropionate, trifluoroacetic acid salt], under 10 µM.
`COC(=O)[C@H](CNC(=O)CC1CC(c2ccc(C(=N)N)cc2F)=NO1)NS(=O)(=O)c1cccc(C)c1` (stereo partly drawn) [Example 512, Methyl N^2-(m-toluenesulfonyl)-N^3-[3-(4-amidino-2-fluorophenyl)isoxazolin-5-ylacetyl]-S-2,3-diaminopropionate hydrochloric acid salt]: the IC50 is under 10 µM.
Same read-out and setting: under `CCCCOC(=O)N[C@@H](CNC(=O)CC1CC(c2ccc(C(=N)N)cn2)=NO1)C(=O)OC` (stereo partly drawn) [Example 513, Methyl N^2-(n-butyloxycarbonyl)-N^3-[3-(3-amidinopyrid-6-yl)isoxazolin-5-ylacetyl]-S-2,3-diaminopropionate hydrochloric acid salt] stands under 10 µM; under `COC(=O)[C@H](CNC(=O)CC1CC(c2ccc(C(=N)N)cn2)=NO1)NS(=O)(=O)c1cccc(C)c1` (stereo partly drawn) [Example 514, Methyl N^2-(m-toluenesulfonyl)-N^3-3-(3-amidinopyrid-6-yl)isoxazolin-5-ylacetyl]-S-2,3-diaminopropionate hydrochloric acid salt], under 10 µM.
With `CCCCOC(=O)N[C@@H](CNC(=O)CC1CC(c2ccc(C(=N)N)nc2)=NO1)C(=O)OC` (stereo partly drawn) [Example 515, Methyl N^2-(n-butyloxycarbonyl)-N^3-[3-(2-amidinopyrid-5-yl)isoxazolin-5-ylacetyl]-S-2,3-diaminopropionate hydrochloric acid salt], the IC50 was under 10 µM.
As for `COC(=O)[C@H](CNC(=O)CC1CC(c2ccc(C(=N)N)nc2)=NO1)NS(=O)(=O)c1cccc(C)c1` (stereo partly drawn) [Example 516, Methyl N^2-(m-toluenesulfonyl)-N^3-[3-(2-amidinopyrid-5-yl)isoxazolin-5-ylacetyl]-S-2,3-diaminopropionate hydrochloric acid salt], the IC50 is under 10 µM.
`COC(=O)C(CNC(=O)CC1CC(c2ccc(C(=N)N)cc2)=NO1)NC(=O)Nc1ccc(F)cc1` (stereo not drawn) [Example 518]: the IC50 is under 10 µM.
On the same count and under the same terms, with `COC(=O)C(CNC(=O)CC1CC(c2ccc(C(=N)N)cc2)=NO1)NC(=O)Nc1cccc2ccccc12` (stereo not drawn) [Example 519] the figure was under 10 µM; with `COC(=O)C(CNC(=O)CC1CC(c2ccc(C(=N)N)cc2)=NO1)NC(=O)NCc1ccccc1` (stereo not drawn) [Example 520], under 10 µM.
Same read-out and setting: with `CCc1ccc(C(=O)NC(CNC(=O)CC2CC(c3ccc(C(=N)N)cc3)=NO2)C(=O)OC)cc1` (stereo not drawn) [Example 522] the figure was under 10 µM; with `COC(=O)C(CNC(=O)CC1CC(c2ccc(C(=N)N)cc2)=NO1)NC(=O)c1ccc(-c2ccccc2)cc1` (stereo not drawn) [Example 523], under 10 µM.
Same read-out and setting: under `COC(=O)C(CNC(=O)CC1CC(c2ccc(C(=N)N)cc2)=NO1)NC(=O)c1ccc2ccccc2c1` (stereo not drawn) [Example 524] stands under 10 µM.
As for `COC(=O)C(CNC(=O)CC1CC(c2ccc(C(=N)N)cc2)=NO1)NC(=O)OCc1ccccc1Cl` (stereo not drawn) [Example 525], the IC50 was under 10 µM.
As for `COC(=O)C(CNC(=O)CC1CC(c2ccc(C(=N)N)cc2)=NO1)NC(=O)OCc1ccccc1Br` (stereo not drawn) [Example 527], the IC50 is under 10 µM.
For the compound `CCCCCCOC(=O)NC(CNC(=O)CC1CC(c2ccc(C(=N)N)cc2)=NO1)C(=O)OC` (stereo not drawn) [Example 529], the IC50 was under 10 µM.
Regarding `COC(=O)C(CNC(=O)CC1CC(c2ccc(C(=N)N)cc2)=NO1)NC(=O)OCC(C)C` (stereo not drawn) [Example 531], the concentration for half-maximal inhibition (IC50) is under 10 µM.
On the same count and under the same terms, with `COC(=O)C(CNC(=O)CC1CC(c2ccc(C(=N)N)cc2)=NO1)NC(=O)OCCC1CC1` (stereo not drawn) [Example 533] the figure was under 10 µM.
On to `COC(=O)C(CNC(=O)CC1CC(c2ccc(C(=N)N)cc2)=NO1)NC(=O)OCCC1CCCC1` (stereo not drawn) [Example 535], for which the IC50 is under 10 µM.
Same read-out and setting: under `COC(=O)C(CNC(=O)CC1CC(c2ccc(C(=N)N)cc2)=NO1)NC(=O)OCCCC(F)(F)F` (stereo not drawn) [Example 537] stands under 10 µM.

The same assay, now with this note: Platelet, without esterase, read-out: Platelet Aggregation Assay IC50 (without esterase).
With `N=C(N)c1ccc(C2=NOC(CC(=O)NCC(NC(=O)OCc3ccccc3Cl)C(=O)O)C2)cc1` (stereo not drawn) [Example 526], the IC50 is under 10 µM.
Same read-out and setting: under `N=C(N)c1ccc(C2=NOC(CC(=O)NCC(NC(=O)OCc3ccccc3Br)C(=O)O)C2)cc1` (stereo not drawn) [Example 528] stands under 10 µM; under `CCCCCCOC(=O)NC(CNC(=O)CC1CC(c2ccc(C(=N)N)cc2)=NO1)C(=O)O` (stereo not drawn) [Example 530], under 10 µM.
On the same count and under the same terms, under `CC(C)COC(=O)NC(CNC(=O)CC1CC(c2ccc(C(=N)N)cc2)=NO1)C(=O)O` (stereo not drawn) [Example 532] stands under 10 µM; under `N=C(N)c1ccc(C2=NOC(CC(=O)NCC(NC(=O)OCCC3CC3)C(=O)O)C2)cc1` (stereo not drawn) [Example 534], under 10 µM.

The same assay, now with this note: preincubated with 100 IU/mL porcine liver esterase 2 hours at 37° C., 100 μM ADP, read-out: Platelet Aggregation Assay IC50 (with esterase).
For the compound `COC(=O)[C@H](CNC(=O)CC1CC(c2ccc(C(=N)N)cc2)=NO1)NC(=O)Nc1ccccc1` (stereo partly drawn) [Example 517], the IC50 is under 10 µM.

The term IC50 denotes the concentration at which inhibition is half-maximal.
